± gives the expanded uncertainty stated by the source.
Assays:
[1] = refractive index (Na D-line) (dimensionless); details: 293.15 K; 101.33 kPa; Liquid; Standard Abbe refractometry
[2] = 293.15 K; 101.33 kPa; Liquid; Vibrating tube method

refractive index [1]	mass density [2]	SMILES
1.328 ± 0.001	791.03 ± 0.23 kg/m3	CO [methanol]
1.474 ± 0.001	1261.3 ± 0.5 kg/m3	OCC(O)CO [glycerol]
1.333 ± 0.001	–	O [water]
